Assays:
[1] = test system: co-culture of mouse bone marrow cells and MB 1.8 mouse osteoblasts; assay: Osteoclastogenesis in murine co-cultures of bone marrow cells and MB 1.8 osteoblasts (TRAP fluorescence or counting of osteoclast-like cells); assay type: cell-based; conditions: FIG. 1
[2] = test system: bone marrow cultures; conditions: cited from earlier work

## CC1(O)CCOC(=O)C1 (racemic) [D,L-mevalonic acid lactone]
[1]; D,L-mevalonic acid lactone 1 mM together with 1 or 10 μM lovastatin, added at days 5 and 6, read on day 7
  reversal of lovastatin inhibition of osteoclastogenesis (TRAP fluorescence assay): reversal

## CC[C@H](C)C(=O)O[C@H]1C[C@@H](C)C=C2C=C[C@H](C)[C@H](CC[C@@H]3C[C@@H](O)CC(=O)O3)[C@H]21 [lovastatin]
[1]; lovastatin 1 and 10 μM added at days 5 and 6, TRAP activity measured on day 7
  inhibition of osteoclastogenesis (tartrate resistant acid phosphatase activity, percent activity relative to no treatment): inhibition of osteoclastogenesis

## C[C@@](O)(CCO)CC(=O)O [mevalonic acid]
[2]; added to mevastatin
  effect of added mevalonic acid on the inhibition of osteoclastogenesis by mevastatin: partially restored

## CC[C@H](C)C(=O)O[C@H]1CCC=C2C=C[C@H](C)[C@H](CC[C@@H]3C[C@@H](O)CC(=O)O3)[C@H]21 [mevastatin]
[2]
  inhibition of in vitro osteoclastogenesis formation: inhibit in vitro osteoclastogenesis formation
